Reference: patent US6979447B2, “Immunomodulation and effect on cell processes relating to serotonin family receptors” (Philadelphia Health and Education Corporation, priority 2001, dated 2005)

How the values were obtained:
[1] = system: human lymphocytes; assay: Viable cell counts (trypan blue) during ConA stimulation of human lymphocytes; type: cell-based; settings: ConA 10 μg/ml, manual trypan blue counts, FIG. 11
Protocol: FIG. 11 is a diagram depicting the effect of a 5HT type 1 receptor antagonist and a 5HT type 2 receptor antagonist on the cell numbers occurring during the mitogenic stimulation of human lymphocyte activation. The cells were stimulated with 10 μg/ml ConA. The cells were repurified on a Ficoll gradient prior to addition of the inhibitor. Trypan blue exclusion was used to count the viable cells.
To further assess the effects of propanolol (a general 5-HTR 1 antagonist) and risperidone (a general 5-HTR 2 antagonist) on the mitogenically stimulated lymphocyte culture, the number of viable cells were manually counted as the assay progressed. If the cells were not stimulated, there was no detectable change in the number of viable cells. When the cells were stimulated with ConA, a small lag period was observed and the beginning of the growth phase compared to the stimulation response curve observed in the absence of the inhibitor. […] Apparently, there is no decrease or increase compared with the starting cell numbers. It is unclear whether or not this is due too anergy, an inability to initiate the activation pathway, or both. […] Thus, based on the data presented here, the classes of antagonists that inhibit the type 2 serotonin receptors appear to be rate limiting for the lymphocyte activation processes.

[2] = system: allogeneic CTL response to P815 cells; assay: Murine allograft model, CTL killing of P815 target cells by splenocytes; type: in vivo, C57BL/6J mice; settings: tail vein bolus 200 μg/injection on days 6 and 8, sacrificed day 14, FIG. 13
Protocol: The in vivo validation screen used was an art-recognized murine allogeneic rejection model as described in Zhan et al., 2000. For this assay, a complete MHC miss-match system was employed wherein 5×10^6 P815 cells ([H-2^d] DBA/2 mastocytoma) were injected into the peritoneal cavity of C57BL/6J (H-2^b) mice on day 0 of the experiment. These mice typically generate a strong cytotoxic T lymphocyte (CTL) reaction in response to P815 cells. Following the initial P815 cell inoculation, the mice were allowed to develop a CTL response (this usually takes about 10-14 days). […] Mice were then sacrificed on day 14 of the experiment as indicated in the figures; and the allogeneic CTL response was assayed as described previously (Tretiakova et al., 2000, Nature Biotechnology 18:984-988). The primary spleen cells from the treated and untreated animals were used in the direct CTL readout. Freshly obtained primary spleen cells were incubated with the [^3H] labeled target cells (P815 cells) at 100:1, 50:1, 25:1, and 12.5:1 ratios for 3.5 hours at 37° C. and harvested using a PHD harvester. The percentage of specific killing was determined using the formula % kill=(S−E)/S, where S is the amount of the DNA retained by the target cells in the absence of the effector cells and E is the amount of retained DNA in the presence of the effector cells (expressed in counts per minute; cpm).
This is an art-recognized model of allograft […] rejection based on that described by […]. (2000). In this model, there is a complete MHC mismatch between the P815 cells (H-2^d) and the C57BL6 mouse (H-2^b), thus ensuring an aggressive immune response. The data disclosed in FIG. 13, depicts results of experiments that included 6 treatment groups, each group consisting of three mice. Each mouse received 5×10^6 P815 cells injected into the peritoneal cavity on day 0 of the study. The first group was an untreated control group, which was used to establish the baseline response of the mice against the allogeneic stimulus. These mice, without any further treatments, were sacrificed, as were the other treatment groups, on day 14 of the study and their splenocytes assayed for target-specific killing of the P815 cells.
The average kill observed for the untreated group was about 45% at an effector to target ratio of 100:1. […] The timing of the drug administration was selected to ensure that the T cells were fully activated prior to the drug treatment. The third group was treated with propanolol, a 5HT-1 antagonist. All of the 5HT receptor antagonist-treated groups were treated as described for the risperidone-treated group. The fourth group was treated chronically with CyclosporinA. The Cyclosporin A was administered ip at a dosage of 100 μg/injection starting two days prior to the onset of the study, i.e., at day-2, and the injections were continued on a daily basis for the duration of the study.
Finally, studies conducted in vivo using the CD8-dependent allograft rejection model, in which P815 cells (a rapidly growing cell line taken from a mastocytoma in a DBA mouse), were expanded and used to create a robust rejection response in a C57BL6 mouse. In this study the mice received 5×10^6 P815 cells injected into their peritoneal cavity on day 0 of the study. The first group was an untreated control group (naïve animals), used to acquire the baseline response of the mice against the allogeneic stimulus. The positive controls were treated with the allogeneic cells without any further treatments. These animals were used to assess the induced allogeneic response against the P815 cells.
All treatment groups were sacrificed on day 14 of the study and their splenocytes assayed for target-specific killing of the P815 cells (the averaged overall kill observed for the positive control group was about 45% at an effector to target ratio of 100:1). The serotonin-specific compounds were administered via tail vein injection (300 μg/injection) on days 5 and 7 of the study. […]

[3] = system: human lymphocytes; assay: Human mitogenic (ConA) stimulation, 3H-thymidine incorporation; type: cell-based; settings: harvested 72 hours
Protocol: Blood from healthy volunteers was drawn using venipuncture, using Vacutainer collection sets and heparinized collection vials. The blood was diluted 1:1 using HBSS to a total volume of 30 ml in 50 ml conical tubes (Fisher Scientific, Co., Pittsburgh, Pa.). […] Cells from the buffy coats were collected and the residual Histopaque was washed away using repeated centrifugations in HBSS. After washes, cells were resuspended at 5 million cells per ml in RPMI, supplemented with 2% FBS. To remove adherent cells, the suspension was plated onto a 6 well flat-bottom plate (Corning Costar), 3 ml/well, and incubated for 2 hours at 37° C., 5% CO2. Non-adherent cells were harvested after this incubation, were counted and resuspended in RPMI supplemented with 10% human serum (Sigma).
All drugs were pre-plated before the cell suspension was added onto each well of a 96-well round-bottom plate. All experimental conditions were assayed in at least triplicate. Cells suspended in RPMI supplemented with 10% human serum were plated at 100,000 cells per well to a final volume of 200 μl. […] Control samples received no ConA stimulation. The plates were incubated at 37° C. and 5% CO2. One microCurie of tritiated thymidine was added to each well after 60 hours, and the plates were harvested 12 hours later.

[4] = system: human lymphocytes; assay: Human mixed lymphocyte reaction (allogeneic stimulation); type: cell-based; settings: harvested 120 hours
From the text: Blood from two healthy, non-related, donors was taken as described above. Peripheral blood mononuclear cells were isolated as described previously elsewhere. The adherent cells were separated from the suspension cells as described previously for both donors. Suspension cells from both donors (donors A and B) were used as responders. The remaining adherent cells from each of the donors were used as stimulators against a different donor (suspension A against adherent B and adherent A against suspension B). The stimulator cells were irradiated at 35 Gy. Drugs were pre-plated onto 96 well, U-bottom plates in triplicate. 200,000 “stimulator” cells in RPMI supplemented with 10% human serum were then plated in each well. 200,000 “responder” cells in the same medium were then plated over stimulators to a final volume of 200 μl/well. Background controls received either no stimulator cells, or no responder cells. The plates were incubated at 37° C. and 5% CO2. 1 μCi of tritiated thymidine was added to each well after 4.5 days, and the plates were harvested 12 hours later.

[5] = system: RPMI 8226 multiple myeloma cells; assay: RPMI 8226 cell proliferation / viability (trypan blue, MTT, 3H-thymidine); type: cell-based, human; settings: low dose-titration, FIGS. 23, 24 and 25
Protocol: The human plasmacytoma (multiple myeloma) cell line, RPMI 8226 (American Type Culture Collection, Manassas, Va.), was cultured in RPMI 1640 supplemented with 10 mM HEPES, 1 mM sodium pyruvate, 4.5 g/L glucose, 1.5 g/L bicarbonate and 20% FBS (non-heat inactivated).
Cell proliferation was assayed by three methods—Trypan Blue Exclusion was used to quantify the number of viable cells in culture; 3-(4,5-dimethylthiazol-2-yl)-2,5-diphenyl tetrazolium bromide (MTT) reduction was used to assay mitochondrial activity (and thus cell viability); and ^3H-Thymidine uptake was employed to assay for active DNA synthesis.
The following 5-HT receptor modulating compounds were tested for their effects on RPMI 8226 cells in vitro cultured at the described densities and across the indicated concentration ranges.

[6] = system: RPMI-8226 cells; assay: Hematoxylin-eosin / bis-benzamide staining of RPMI-8226 cytospins; type: cell-based, human
Protocol: 2.0×10^5 RPMI-8226 cells were cultured, in 6-well culture plates, in the presence of the indicated drug concentrations, in a total of 5 mL RPMI-1640 supplemented with 10% FBS. Each well was harvested in its entirety and divided into two identical samples for cytospins.
1.0×10^5 RPMI-8226 cells from each treatment group were loaded into Cyto-funnels and centrifuged at 500 rpm for 4 minutes with medium acceleration. Slides were then fixed through graded methanol in PBS (100%, 5 minutes; 80%, 5 minutes; 50%, 5 minutes), washed for 5 minutes in PBS and stored in PBS at 4° C. until stained.
Cytospun slides were stained with Hematoxylin and Eosin, followed by the nuclear stain, bis-benzamide, rinsed and mounted according to standard staining protocols. Slides were visualized under both brightfield and fluorescent light to generate matched images of the same slide field (see, e.g., FIGS. 28 and 29).

[7] = system: cells; assay: Cell morphology change on inhibition of serotonergic signalling; type: cell-based; settings: after 24 hours of treatment, FIG. 30
Protocol: Briefly, cells were incubated with a 5-HTR antagonist (e.g., a selective type 1B inhibitor SD 216641) and the effects of treatment were assessed after 24 hours. […] For instance, detection of cell changes can be assessed using optical instruments (electron and light microscopy, as well as fluorescence activated cell sorting, and the like), or any other device that assesses and detects changes in cell size, density, morphology, and the like. Such devices are well known in the art and are not recounted here.

Compound	effect on number of viable cells [1]	effect on allograft (CTL) response [2]	effect on activation / proliferative response ([3]; ConA 5 μg/ml, FIGS. 7A, 8A, 9A)	IC50 ([3]; ConA (5 μg/ml) stimulation of human lymphocytes, FIG. 7A, read-out: apparent IC50) [nM]	effect on activation / proliferative response ([4]; allogeneic stimulation, FIGS. 7B, 8B, 9B)	IC50 ([4]; allogeneic stimuli (mixed lymphocyte reaction), FIG. 7B, read-out: apparent IC50) [nM]	effect on growth of RPMI-8226 cells [5]	chromatin / nuclear morphology ([6]; 50 μM, 9 hour treatment, FIGS. 28, 29)	induction of programmed cell death ([6]; FIGS. 28 and 29)	change in cell morphology [7]
CC(C)NC[C@H](O)COc1cccc2ccccc12 (racemic) [propanolol]	prevents the cell from growing	did not protect the mice from the allograft rejection response								
COc1ccc(NC(=O)c2ccc(-c3ccc(-c4noc(C)n4)cc3C)cc2)cc1OCCN(C)C [SB 216641]			complete inhibition of the activation response	~200	complete inhibition of the activation response	~50	completely inhibited the growth of the cancer cells	Extensive chromatin condensation and nuclear fragmentation	induced programmed cell death comparable to that induced by the topoisomerase I inhibitor, camptothecin	an increase in cell size
Cc1nc2n(c(=O)c1CCN1CCC(c3noc4cc(F)ccc34)CC1)CCCC2 [risperidone]	caused a brief cell increase, followed by the elimination of the cells in culture	inhibited the allograft response to varying degrees								
